Experiment [1] relates to HCV genotype 1a (H77 strain) replicon in HUH-7 cells. Kind of experiment: HCV replicon luciferase reporter assay, genotype 1a. It counts as cell-based. Particulars: Hepatitis C virus, Huh-7, 72 h, HCV genotype 1a replicon luciferase, 3 days incubation, read-out: LE_1a (EC50, range). In short, it runs like this: (§1)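 Replicon inhibition for both genotypes was measured as Renilla luciferase signal (EnduRen, 7.5 μM final, 2 h) after 3-day, 37° C exposure of replicon-bearing HUH-7 cells in 4% FCS DMEM, 0.5% DMSO. The 1b construct carries S1179I; the 1a H77 construct carries P1496L and S2204I. Twenty-point, 3-fold dilutions were fitted four-parametrically for EC50, and CC50 was taken from multiplexed Cell Titer-Blue.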
(In antiviral work, replicon cells carry a viral genome segment that copies itself.)

Experiment [2] concerns HCV genotype 1b (Con1) replicon in HUH-7 cells. Kind of experiment: HCV replicon luciferase reporter assay, genotype 1b. The experiment is classed as cell-based. Particulars: Hepatitis C virus, Huh-7, 72 h, HCV genotype 1b replicon luciferase, 3 days incubation, read-out: LE_1b (EC50, range). In short, it runs like this:
as §1

Structures are written as SMILES. Like-named read-outs stand apart in the source and are kept apart here.

One may read the EC50 as the concentration that produces a half-maximal response. With `COc1ccc2c(O[C@@H]3C[C@H]4C(=O)N[C@]5(C(=O)NS(=O)(=O)C6(C)CC6)C[C@H]5/C=C\CC[C@@H](C)C[C@@H](C)[C@H](NC(=O)OC(C)(C)C)C(=O)N4C3)nc(-c3ccc(OC(C)C)cc3)cc2c1` [Compound 4063, tert-butyl (2R,6S,7R,9R,13aS,14aR,16aS,Z)-2-(3-(4-isopropoxyphenyl)-6-methoxyisoquinolin-1-yloxy)-7,9-dimethyl-14a-(1-methylcyclopropylsulfonylcarbamoyl)-5,16-dioxo-1,2,3,5,6,7,8,9,10,11,13a,14,14a,15,16,16a-hexadecahydrocyclopropa[e]pyrrolo[1,2-a][1,4]diazacyclopentadecin-6-ylcarbamate], the EC50 in experiment [1] and in experiment [2] was less than 5.46 nM in each case.

For the compound `COc1ccc2c(O[C@@H]3C[C@H]4C(=O)N[C@]5(C(=O)NS(=O)(=O)C6(C)CC6)C[C@H]5/C=C\CC[C@@H](C)C[C@@H](C)[C@H](NC(=O)OC(C)(C)C(F)(F)F)C(=O)N4C3)nc(-c3ccc(OC(C)C)cc3)cc2c1` [Compound 4064], the concentration giving a half-maximal response (EC50) in experiment [1] (GETYPE1A) and in experiment [2] (GETYPE1B) was less than 5.46 nM throughout.

With `COc1cnc(O[C@@H]2C[C@H]3C(=O)N[C@]4(C(=O)NS(=O)(=O)C5(C)CC5)C[C@H]4/C=C\CC[C@@H](C)C[C@@H](C)[C@H](NC(=O)OC(C)(C)C(F)(F)F)C(=O)N3C2)c2cccc(Cl)c12` [Compound 4065], the EC50 in experiment [1] (GETYPE1A) and in experiment [2] (GETYPE1B) was less than 5.46 nM throughout.

`CCOc1cnc(O[C@@H]2C[C@H]3C(=O)N[C@]4(C(=O)NS(=O)(=O)C5(C)CC5)C[C@H]4/C=C\CC[C@@H](C)C[C@@H](C)[C@H](NC(=O)O[C@H](C)C(F)(F)F)C(=O)N3C2)c2ccccc12` [Compound 4066, (R)-1,1,1-trifluoropropan-2-yl (2R,6S,7R,9R,13aS,14aR,16aS,Z)-2-(4-ethoxyisoquinolin-1-yloxy)-7,9-dimethyl-14a-(1-methylcyclopropylsulfonylcarbamoyl)-5,16-dioxo-1,2,3,5,6,7,8,9,10,11,13a,14,14a,15,16,16a-hexadecahydrocyclopropa[e]pyrrolo[1,2-a][1,4]diazacyclopentadecin-6-ylcarbamate]: the EC50 in experiment [1] and in experiment [2] was less than 5.46 nM throughout.

As to `C[C@@H]1CC/C=C\[C@@H]2C[C@@]2(C(=O)NS(=O)(=O)C2CC2)NC(=O)[C@@H]2C[C@@H](Oc3ncc(OCC4CC4)c4ccc(F)cc34)CN2C(=O)[C@@H](NC(=O)OC(C)(C)C(F)(F)F)[C@H](C)C1` [Compound 4067], the 50% effective concentration (EC50) is 4.82 to 103 nM in experiment [1] (GETYPE1A) and less than 5.46 nM in experiment [2] (GETYPE1B).

As to `COc1cnc(O[C@@H]2C[C@H]3C(=O)N[C@]4(C(=O)NS(=O)(=O)C5(F)CC5)C[C@H]4/C=C\CC[C@@H](C)C[C@@H](C)[C@H](NC(=O)OC(C)(C)C(F)(F)F)C(=O)N3C2)c2cc(F)ccc12` [Compound 4068], the concentration giving a half-maximal response (EC50) in experiment [1] (GETYPE1A) and in experiment [2] (GETYPE1B) was less than 5.46 nM throughout.

Turning to `COc1cc2ccnc(O[C@@H]3C[C@H]4C(=O)N[C@]5(C(=O)NS(=O)(=O)C6(F)CC6)C[C@H]5/C=C\CC[C@@H](C)C[C@@H](C)[C@H](NC(=O)OC(C)(C)C(F)(F)F)C(=O)N4C3)c2cc1F` [Compound 4069], the EC50 in experiment [1] (GETYPE1A) and in experiment [2] (GETYPE1B) was less than 5.46 nM throughout.

For the compound `COc1cc2c(OC)cnc(O[C@@H]3C[C@H]4C(=O)N[C@]5(C(=O)NS(=O)(=O)C6(C)CC6)C[C@H]5/C=C\CC[C@@H](C)C[C@@H](C)[C@H](NC(=O)OC(C)(C)C)C(=O)N4C3)c2cc1F` [Compound 4070, tert-butyl (2R,6S,7R,9R,13aS,14aR,16aS,Z)-2-(7-fluoro-4,6-dimethoxyisoquinolin-1-yloxy)-7,9-dimethyl-14a-(1-methylcyclopropylsulfonylcarbamoyl)-5,16-dioxo-1,2,3,5,6,7,8,9,10,11,13a,14,14a,15,16,16a-hexadecahydrocyclopropa[e]pyrrolo[1,2-a][1,4]diazacyclopentadecin-6-ylcarbamate], the EC50 in experiment [1] and in experiment [2] was less than 5.46 nM each time.

`C[C@@H]1CC/C=C\[C@@H]2C[C@@]2(C(=O)NS(=O)(=O)C2CC2)NC(=O)[C@@H]2C[C@@H](Oc3nccc4ccc(F)cc34)CN2C(=O)[C@@H](NC(=O)OC(C)(C)C)[C@H](C)C1` [Compound 4071, tert-butyl (2R,6S,7R,9R,13aS,14aR,16aS,Z)-14a-(cyclopropylsulfonylcarbamoyl)-2-(7-fluoroisoquinolin-1-yloxy)-7,9-dimethyl-5,16-dioxo-1,2,3,5,6,7,8,9,10,11,13a,14,14a,15,16,16a-hexadecahydrocyclopropa[e]pyrrolo[1,2-a][1,4]diazacyclopentadecin-6-ylcarbamate]: the EC50 in experiment [1] and in experiment [2] was less than 5.46 nM throughout.

With `C[C@@H]1CC/C=C\[C@@H]2C[C@@]2(C(=O)NS(=O)(=O)C2CC2)NC(=O)[C@@H]2C[C@@H](Oc3nccc4ccc(F)cc34)CN2C(=O)[C@@H](NC(=O)OC2(C)CC2)[C@H](C)C1` [Compound 4073, 1-methylcyclopropyl (2R,6S,7R,9R,13aS,14aR,16aS,Z)-14a-(cyclopropylsulfonylcarbamoyl)-2-(7-fluoroisoquinolin-1-yloxy)-7,9-dimethyl-5,16-dioxo-1,2,3,5,6,7,8,9,10,11,13a,14,14a,15,16,16a-hexadecahydrocyclopropa[e]pyrrolo[1,2-a][1,4]diazacyclopentadecin-6-ylcarbamate], the EC50 in experiment [1] and in experiment [2] was less than 5.46 nM throughout.

As to `COc1cc2c(OC)cnc(O[C@@H]3C[C@H]4C(=O)N[C@]5(C(=O)NS(=O)(=O)C6CC6)C[C@H]5/C=C\CC[C@@H](C)C[C@@H](C)[C@H](NC(=O)OC(C)(C)C)C(=O)N4C3)c2cc1F` [Compound 4074, tert-butyl (2R,6S,7R,9R,13aS,14aR,16aS,Z)-14a-(cyclopropylsulfonylcarbamoyl)-2-(7-fluoro-4,6-dimethoxyisoquinolin-1-yloxy)-7,9-dimethyl-5,16-dioxo-1,2,3,5,6,7,8,9,10,11,13a,14,14a,15,16,16a-hexadecahydrocyclopropa[e]pyrrolo[1,2-a][1,4]diazacyclopentadecin-6-ylcarbamate], the EC50 in experiment [1] and in experiment [2] was less than 5.46 nM in each case.

In the case of `CCOc1cnc(O[C@@H]2C[C@H]3C(=O)N[C@]4(C(=O)NS(=O)(=O)C5(C)CC5)C[C@H]4/C=C\CC[C@@H](C)C[C@@H](C)[C@H](NC(=O)OC(C)(C)C)C(=O)N3C2)c2cc(Cl)ccc12` [Compound 4075, tert-butyl (2R,6S,7R,9R,13aS,14aR,16aS,Z)-2-(7-chloro-4-ethoxyisoquinolin-1-yloxy)-7,9-dimethyl-14a-(1-methylcyclopropylsulfonylcarbamoyl)-5,16-dioxo-1,2,3,5,6,7,8,9,10,11,13a,14,14a,15,16,16a-hexadecahydrocyclopropa[e]pyrrolo[1,2-a][1,4]diazacyclopentadecin-6-ylcarbamate], the EC50 in experiment [1] and in experiment [2] was less than 5.46 nM in each case.

Consider `CCOc1cnc(O[C@@H]2C[C@H]3C(=O)N[C@]4(C(=O)NS(=O)(=O)C5(C)CC5)C[C@H]4/C=C\CC[C@@H](C)C[C@@H](C)[C@H](NC(=O)OC(C)(C)C(F)(F)F)C(=O)N3C2)c2cc(Cl)ccc12` [Compound 4076], for which the 50% effective concentration (EC50) in experiment [1] (GETYPE1A) and in experiment [2] (GETYPE1B) was less than 5.46 nM throughout.

On to `CCC1(S(=O)(=O)NC(=O)[C@@]23C[C@H]2/C=C\CC[C@@H](C)C[C@@H](C)[C@H](NC(=O)OC(C)(C)C(F)(F)F)C(=O)N2C[C@H](Oc4nccc5cc(OC)ccc45)C[C@H]2C(=O)N3)CC1` [Compound 4077], for which the EC50 in experiment [1] (GETYPE1A) and in experiment [2] (GETYPE1B) was less than 5.46 nM throughout.

Take `COc1ccc2c(O[C@@H]3C[C@H]4C(=O)N[C@]5(C(=O)NS(=O)(=O)C6(C)CC6)C[C@H]5/C=C\CC[C@@H](C)C[C@@H](C)[C@H](NC(=O)OC(C)(C)C)C(=O)N4C3)nc(-c3ccc(C(C)(C)C)cc3)cc2c1` [Compound 4078, tert-butyl (2R,6S,7R,9R,13aS,14aR,16aS,Z)-2-(3-(4-tert-butylphenyl)-6-methoxyisoquinolin-1-yloxy)-7,9-dimethyl-14a-(1-methylcyclopropylsulfonylcarbamoyl)-5,16-dioxo-1,2,3,5,6,7,8,9,10,11,13a,14,14a,15,16,16a-hexadecahydrocyclopropa[e]pyrrolo[1,2-a][1,4]diazacyclopentadecin-6-ylcarbamate]: the EC50 in experiment [1] and in experiment [2] was 4.82 to 103 nM in each case.

On to `COc1ccc2c(O[C@@H]3C[C@H]4C(=O)N[C@]5(C(=O)NS(=O)(=O)C6(C)CC6)C[C@H]5/C=C\CC[C@@H](C)C[C@@H](C)[C@H](NC(=O)OC(C)(C)C(F)(F)F)C(=O)N4C3)nc(-c3ccc(C(C)(C)C)cc3)cc2c1` [Compound 4079], for which the half-maximal effective concentration (EC50) in experiment [1] (GETYPE1A) and in experiment [2] (GETYPE1B) was 4.82 to 103 nM each time.

Take `COc1ccc2c(O[C@@H]3C[C@H]4C(=O)N[C@]5(C(=O)NS(=O)(=O)C6(C)CC6)C[C@H]5/C=C\CC[C@@H](C)C[C@@H](C)[C@H](NC(=O)OC(C)(C)C)C(=O)N4C3)ncc(OC)c2c1` [Compound 4080, tert-butyl (2R,6S,7R,9R,13aS,14aR,16aS,Z)-2-(4,6-dimethoxyisoquinolin-1-yloxy)-7,9-dimethyl-14a-(1-methylcyclopropylsulfonylcarbamoyl)-5,16-dioxo-1,2,3,5,6,7,8,9,10,11,13a,14,14a,15,16,16a-hexadecahydrocyclopropa[e]pyrrolo[1,2-a][1,4]diazacyclopentadecin-6-ylcarbamate]: the EC50 in experiment [1] and in experiment [2] was less than 5.46 nM throughout.

For `COc1ccc2c(O[C@@H]3C[C@H]4C(=O)N[C@]5(C(=O)NS(=O)(=O)C6(C)CC6)C[C@H]5/C=C\CC[C@@H](C)C[C@@H](C)[C@H](NC(=O)OC(C)(C)C(F)(F)F)C(=O)N4C3)ncc(OC)c2c1` [Compound 4081], the EC50 in experiment [1] (GETYPE1A) and in experiment [2] (GETYPE1B) was less than 5.46 nM in each case.

The record behind these values is patent US9499550B2 (BRISTOL-MYERS SQUIBB COMPANY, priority 2012, dated 2016).
